Assay [1] concerns MCF-7 (human breast carcinoma cell line). Put plainly: CCK-8 antiproliferative assay, MCF-7. Type of assay: cell-based. Conditions: MCF7, 48 h, read-out: IC50, Mean ± SE, MCF-7. (In general: Tetrazolium assays rely on reduction of a dye to a coloured formazan, in cell work by metabolically active cells.)
Assay [2] concerns A549 cells. Description: intracellular ROS detection by DCFH-DA. In kind it is cell-based, human. Conditions: A549, 10, 20 and 50 nM, 12 h. An excerpt:
The intrinsic mitochondrial pathway is one of the most well-studied mechanisms relevant to cell apoptosis. ROS accumulation and mitochondrial membrane potential (MMP) alteration play crucial roles in this pathway. In this study, a fluorescent dye including DCFH-DA and JC-1 was used to monitor the intracellular ROS and MMP, respectively.
Figure 5 ROS accumulation and MMP alteration induced by compound 14b. (A,B) The intracellular ROS detection by DCFH-DA after A549 cells treated with compound 14b at indicated concentrations for 12 h. (C,D) The detection of MMP monitored by JC-1 dye after A549 cells treated with compound 14b at the concentrations of 10, 20 and 50 nM for 12 h. […]
samples were fixed in ice-cold 70% ethanol overnight and removed with ice-cold PBS for three times. […] After the incubation, the prepared cell samples were immediately analyzed. Almost 10,000 events were detected by flow cytometry (Beckman Coulter, CytoFlex LX). The data regarding the number of cells in different phases of the cell cycle were or apoptotic cells were analyzed by […]
Caspase-3 activity was measured according to the manufacturer ’s instructions using a GreenNuc™ Caspase-3 assay kit for live cells (Beyotime, China). […] After incubation, the fluorescence intensity (excitation wavelength:
485 nm, emission wavelength: 515 nm) was recorded using a multifunctional microplate reader (Thermo Scientific, Varioskan LUX). […]

The test system of assay [3] is RWPE-1 (human prostate epithelial cells). Put plainly: CCK-8 cytotoxicity, RWPE-1 normal cells. In kind it is cell-based. From the text: High cytotoxicity is one of the most limiting factors in chemotherapeutics.
A549 (non-small-cell-lung cancer cell line), Caski (human epithelial cervical cancer cell line), HepG2 (human liver carcinoma cell line), MCF-7 (human breast carcinoma cell line), C42B (human prostate cancer line C42B), L-02 (human normal hepatocytes), RWPE-1 (human prostate epithelial cells) and MCF-10A (human normal mammary epithelial cells) were obtained from National Collection of Authenticated Cell Cultures (Shanghai, China). […]
After 24 h, the medium containing different concentrations of tested compounds were added for another 48 h. […] The optical density was recorded with a microplate reader at 570 nm (Thermo Scientific, Varioskan LUX). All the experiments were repeated independently at least three times and the IC50 values were calculated […]
The fluorescence intensity enhancement (emission wavelength is 410 nm, excitation wavelength is 340 nm) was recorded every 60 s for 60 min in a multifunction microplate reader (Molecular Devices, Flex Station 3). […]

On to `COc1ccc(C(=O)c2ccc3c(ccn3C)c2)c2c1C=CC(C)(C)O2` [compound 14b, (5-methoxy-2,2-dimethyl-2H-chromen-8-yl)(1-methyl-1H-indol-5-yl)methanone], for which the concentration for half-maximal inhibition (IC50) (in general, the concentration needed to halve the response being measured) was 0.027 ± 0.006 µM in assay [1] and 3.698 ± 0.036 µM in assay [3] (Homo sapiens, RWPE-1, 48 h, CCK-8, normal cells, read-out: IC50, Mean ± SE, RWPE-1). For the same molecule, the “level of ROS” value in assay [2] was “significantly rose abruptly in a dose-dependent manner”. Also, the “Selectivity Ratio” value in assay [3] (IC50 RWPE-1 / IC50 C42B) was determined as 72.51.

These data come from publication PMC9921564, “Novel Indole-Containing Hybrids Derived from Millepachine: Synthesis, Biological Evaluation and Antitumor Mechanism Study” (Molecules, 2023).
